Measured values as given in patent US4681893A, “Trans-6-[2-(3- or 4-carboxamido-substituted pyrrol-1-yl)alkyl]-4-hydroxypyran-2-one inhibitors of cholesterol synthesis” (Warner-Lambert Company, priority 1986, dated 1987).

How the values were obtained:
[1] = tested on: biosynthesis of cholesterol (sterol synthesis) in rat liver homogenate; experiment: CSI screen: inhibition of sterol synthesis (incorporation of cholesterol-14C-acetate into nonsaponifiable lipid) by rat liver homogenate; assay type: biochemical; conditions: one-hour period, cholestyramine-fed rats, read-out: IC50 (Micromoles/liter) CSI
Method: The ability of compounds of the present invention to inhibit the biosynthesis of cholesterol was measured by two methods. A first method (designated CSI screen) utilized the procedure described by R. E. Dugan et al., Archiv. Biochem. Biophys., (1972), 152, 21-27. In this method, the level of HMG-CoA enzyme activity in standard laboratory rats is increased by feeding the rats a chow diet containing 5% cholestyramine for four days, after which the rats are sacrificed.
The rat livers are homogenized, and the incorporation of cholesterol-^14 C-acetate into nonsaponifiable lipid by the rat liver homogenate is measured. The micromolar concentration of compound required for 50% inhibition of sterol synthesis over a one-hour period is measured, and expressed as an IC50 value.

[2] = biological target: T1, HMG-CoA reductase (Rattus norvegicus, UniProt P51639); experiment: COR screen: conversion of 14C-HMG-CoA to 14C-mevalonate by a purified HMG-CoA reductase preparation; assay type: biochemical; conditions: purified enzyme preparation of HMG-CoA reductase, read-out: IC50 (Micromoles/liter) COR
T1 sequence (P51639 1-887): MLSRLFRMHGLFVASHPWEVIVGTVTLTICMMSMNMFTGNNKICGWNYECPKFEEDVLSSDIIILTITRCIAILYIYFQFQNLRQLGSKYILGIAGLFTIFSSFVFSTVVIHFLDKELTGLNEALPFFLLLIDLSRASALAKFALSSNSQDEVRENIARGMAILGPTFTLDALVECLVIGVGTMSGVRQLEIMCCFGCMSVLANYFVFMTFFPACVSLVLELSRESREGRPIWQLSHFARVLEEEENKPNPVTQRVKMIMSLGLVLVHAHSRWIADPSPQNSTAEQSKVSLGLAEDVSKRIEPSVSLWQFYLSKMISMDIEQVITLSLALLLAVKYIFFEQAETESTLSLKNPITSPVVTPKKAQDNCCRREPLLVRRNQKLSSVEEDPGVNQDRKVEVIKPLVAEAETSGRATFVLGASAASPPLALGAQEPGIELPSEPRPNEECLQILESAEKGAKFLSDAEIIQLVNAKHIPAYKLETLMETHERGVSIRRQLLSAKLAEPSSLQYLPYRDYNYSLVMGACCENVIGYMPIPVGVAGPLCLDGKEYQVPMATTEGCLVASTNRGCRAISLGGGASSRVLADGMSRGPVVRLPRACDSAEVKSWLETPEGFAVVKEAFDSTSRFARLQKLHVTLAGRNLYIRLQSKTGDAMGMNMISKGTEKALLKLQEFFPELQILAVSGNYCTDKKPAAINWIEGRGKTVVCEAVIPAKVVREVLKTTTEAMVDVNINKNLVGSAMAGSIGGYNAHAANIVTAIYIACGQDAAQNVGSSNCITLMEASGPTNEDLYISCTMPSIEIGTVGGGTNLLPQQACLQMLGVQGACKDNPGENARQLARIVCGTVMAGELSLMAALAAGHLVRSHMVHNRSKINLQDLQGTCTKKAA
Method: A second method (designated COR screen) employed the procedure detailed by T. Kita, et al., J. Clin. Invest., (1980), 66: 1094-1100. In this method, the amount of ^14 C-HMG-CoA converted to ^14 C-mevalonate in the presence of a purified enzyme preparation of HMG-CoA reductase was measured. The micromolar concentration of compound required for 50% inhibition of cholesterol synthesis was measured and recorded as an IC50 value.

| IC50 [2] [nM] | SMILES | IC50 [1] [nM] |
| --- | --- | --- |
| 20 | O=C1C[C@@H](O)C[C@H](CCn2c(-c3ccc(F)cc3)c(-c3ccccc3)c(C(=O)Nc3ccccc3)c2C(F)(F)F)O1 (relative stereo) [Compound 3, trans-5-(4-fluorophenyl)-N,4-diphenyl-1-[2-(tetrahydro-4-hydroxy-6-oxo-2H-pyran-2-yl)ethyl]-2-(trifluoromethyl)-pyrrole-3-carboxamide] | 18 |
| 50 | CC(C)c1c(C(=O)Nc2ccccc2)c(-c2ccccc2)c(-c2ccc(F)cc2)n1CC[C@H]1C[C@H](O)CC(=O)O1 (relative stereo) [Compound 1, trans-5-(4-fluorophenyl)-2-(1-methylethyl)-N,4-diphenyl-1-[2-(tetrahydro-4-hydroxy-6-oxo-2H-pyran-2-yl)ethyl]-1H-pyrrole-3-carboxamide] | 35 |
| – | CC[C@H](C)C(=O)O[C@H]1CCC=C2C=C[C@H](C)[C@H](CC[C@@H]3C[C@@H](O)CC(=O)O3)[C@H]21 [Compactin, reference compound] | 26 |
| 400 | O=C1C[C@@H](O)C[C@H](CCn2c(-c3ccc(F)cc3)c(C(=O)Nc3ccccc3)c(-c3ccccc3)c2C(F)(F)F)O1 (relative stereo) [Compound 2, trans-2-(4-fluorophenyl)-N,4-diphenyl-1-[2-(tetrahydro-4-hydroxy-6-oxo-2H-pyran-2-yl)ethyl]-5-(trifluoromethyl)-pyrrole-3-carboxamide] | 400 |
